Patent US20160000852A1, “NUTRIENT COMBINATIONS FOR AFFECTING AN AGING PROCESS” (BioMarker Pharmaceuticals, Inc., priority 2013, published 2016)

What was measured:
Type in all cases: in vivo
[1] = test system: D-gal exposed mice; assay: Coordination test with the Rota-Rod; details: 12 animals
Method: FIG. 2 illustrates a coordination test with the Rota-Rod. In addition, latency to fall was tested. Values are mean ±SEM of 12 animals.

[2] = test system: mitochondria of gastrocnemius muscle; assay: Transmission electron microscopy of gastrocnemius muscle mitochondria; details: D-gal exposed mice
Description: To understand the grip strength loss caused by D-gal exposure, the morphology of mice gastrocnemius muscles were further evaluated with transmission electron microscopy. FIGS. 4A-4E illustrate the transmission electron microscopy results of the gastrocnemius muscle. In particular, FIG. 4A illustrates the transmission electron microscopy for the control group of subjects (i.e. mice), FIG. 4B illustrates the transmission electron microscopy for the D-gal group, FIG. 4C illustrates the transmission electron microscopy for the Formula A group, FIG. 4D illustrates the transmission electron microscopy for the Formula B group, FIG. 4E illustrates the transmission electron microscopy for the Formula C group. A magnified view of the upper panels in FIGS. 4A-4E are shown in the lower panels.

[3] = test system: complex I in heart mitochondria; assay: Complex I activity in heart mitochondria; details: D-gal exposed mice; n=11
Method: The activity of complex I was also assayed in several other tissues, such as liver, heart, and brain. FIG. 6 illustrates activities of complex I in mitochondria from multiple tissues. As is illustrated by the results shown in FIG. 6, D-gal administration impairs the activity of complex I in gastrocnemius. Values are means ±SEM of 12 mice in gastroanemius, 11 mice in heart and 12 mice in brain and liver. **P<0.01 versus Normal group.
(§1) FIG. 7 illustrates the effects of Formulas A-C on the activity of complex I in gastrocnemius and heart mitochondria. Activities of complex I of gastrocnemius (n=12) and heart (n=11) in all groups were assayed. All values are expressed as means ±SEM. **P<0.01 versus Normal group, ^#P<0.05 versus D-gal group, ^##P<0.01 versus D-gal group.

[4] = test system: complex I in gastrocnemius mitochondria; assay: Complex I activity in gastrocnemius mitochondria; details: D-gal exposed mice; n=12
Method: In view of the abnormal mitochondrial morphology in the skeletal muscle of the D-gal treated mice, the activities of some key enzymes in the electron transport chain (ETC) and the tricarboxylic acid (TCA) cycle were further examined.
as §1

[5] = test system: D-gal exposed mice; assay: Spatial memory test with the Morris Water Maze (MWM); details: D-gal exposure 125 mg/kg/d, 8 weeks; 12 animals
Description: The Morris Walter Maze (MWM) was applied to measure cognitive deficiencies in D-gal exposed mice. […] In particular, FIG. 1A illustrates the latency time for finding a platform of control subjects, D-gal subjects and subjects administered Formulas A-C over a period of training days. The subjects, in this case, were mice. Values are illustrated as mean ±SEM of 12 animals. […] In addition, FIG. 1B illustrates the latency distance to the platform of control subjects, D-gal subjects and subjects administered Formulas A-C over the same period of training days as illustrated in FIG. 1A.

[6] = test system: D-gal exposed mice; assay: Grip strength test (forelimb); details: 12 mice
Method: It should further be understood that a decrease in strength is a reliable indicator of the aging process. In this aspect, the rodent grip strength test is a putative measure of muscular strength and has been previously used to screen for neuromuscular function. FIG. 3 illustrates the results of a grip strength test. In particular, grip strength of forelimb was tested. Values are means ±SEM of 12 mice. **P<0.01 versus Normal group, ^##P<0.01 versus D-gal group, ^###P<0.001 versus D-gal group.

O=C[C@H](O)[C@@H](O)[C@@H](O)[C@H](O)CO [D-gal, D-galactose]
motor coordination (latency to fall) in Rota-Rod test [1]: No difference in latency time | mitochondrial morphology in gastrocnemius muscle [2]: swollen and elongated mitochondria with obvious cristae disruption | complex I activity in heart mitochondria [3]: marginal decrease in heart muscle | complex I activity in gastrocnemius (skeletal muscle) mitochondria [4]: only complex I activity was impaired | spatial memory (latency time and latency distance to platform) in MWM [5]: did not affect the escape latency or swimming distance | grip strength of forelimb [6]: significantly weaker grip strength
